Measured values reported in ChEMBL document CHEMBL2434827, “Selective inhibition of heme oxygenase-2 activity by analogs of 1-(4-chlorobenzyl)-2-(pyrrolidin-1-ylmethyl)-1H-benzimidazole (clemizole): Exploration of the effects of substituents at the N-1 position” (Bioorg Med Chem, 2013).

Tests used:
Heme oxygenase 2 = molecular target: T1, Heme oxygenase 2 (Rattus norvegicus, UniProt P23711); test: Inhibition of HO-2 in Sprague-Dawley rat brain microsomal fractions assessed as carbon monoxide formation from methemalbumin after 10 mins by gas chromatography analysis; format: microsomes
T1 sequence (P23711 whole entry): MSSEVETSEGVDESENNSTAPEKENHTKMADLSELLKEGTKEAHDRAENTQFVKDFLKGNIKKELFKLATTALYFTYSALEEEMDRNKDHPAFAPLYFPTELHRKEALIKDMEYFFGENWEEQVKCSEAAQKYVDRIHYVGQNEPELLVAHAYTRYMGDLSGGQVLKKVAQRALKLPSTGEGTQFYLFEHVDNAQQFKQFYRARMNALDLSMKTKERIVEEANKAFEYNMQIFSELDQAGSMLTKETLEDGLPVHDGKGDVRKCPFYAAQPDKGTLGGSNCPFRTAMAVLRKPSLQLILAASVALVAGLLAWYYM

Rattus norvegicus = species on record: Rattus norvegicus; test: Selectivity index, ratio of IC50 for HO-1 in Sprague-Dawley rat spleen microsomal fractions to IC50 for HO-2 in Sprague-Dawley rat brain microsomal fractions; format: microsomes; details: Microsome
Heme oxygenase 1 = molecular target: T2, Heme oxygenase 1 (Rattus norvegicus, UniProt P06762); test: Inhibition of HO-1 in Sprague-Dawley rat spleen microsomal fractions assessed as carbon monoxide formation from methemalbumin after 10 mins by gas chromatography analysis; format: microsomes, Microsome
T2 sequence (P06762 whole entry): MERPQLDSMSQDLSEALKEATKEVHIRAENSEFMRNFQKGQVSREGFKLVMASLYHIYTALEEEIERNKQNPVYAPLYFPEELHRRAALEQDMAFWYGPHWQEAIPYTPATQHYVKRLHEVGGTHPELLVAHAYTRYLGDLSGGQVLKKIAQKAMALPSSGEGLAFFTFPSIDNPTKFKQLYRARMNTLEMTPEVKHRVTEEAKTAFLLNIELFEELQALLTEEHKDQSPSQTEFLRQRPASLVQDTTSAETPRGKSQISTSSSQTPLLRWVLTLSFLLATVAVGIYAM

| Compound | IC50 (Heme oxygenase 2) [µM] | Ratio IC50 (Rattus norvegicus) | IC50 (Heme oxygenase 1) [µM] |
| --- | --- | --- | --- |
| Brc1ccccc1Cn1c(CN2CCCC2)nc2ccccc21 | 1.6 | 26 | 42 |
| c1ccc2[nH]c(CN3CCCC3)nc2c1 | > 100 |  | > 100 |
| CSc1ccc(Cn2c(CN3CCCC3)nc3ccccc32)cc1 | 15 | > 6 | > 100 |
| FC(F)(F)c1ccc(Cn2c(CN3CCCC3)nc3ccccc32)cc1 | 15.6 | > 6.4 | > 100 |
| c1ccc(C(c2ccccc2)n2c(CN3CCCC3)nc3ccccc32)cc1 | 4.1 | > 24 | > 100 |
| Cc1ccccc1Cn1c(CN2CCCC2)nc2ccccc21 | 1.8 | 42 | 76 |
| c1ccc2c(c1)nc(CN1CCCC1)n2CC1CCCCC1 | 6 | > 16 | > 100 |
| O=[N+]([O-])c1ccccc1Cn1c(CN2CCCC2)nc2ccccc21 | 3.5 | > 28 | > 100 |
| c1ccc2cc(Cn3c(CN4CCCC4)nc4ccccc43)ccc2c1 | 5 | > 20 | > 100 |
| c1ccc(COc2ccc(Cn3c(CN4CCCC4)nc4ccccc43)cc2)cc1 | 63 | > 1.5 | > 100 |
| CCCn1c(CN2CCCC2)nc2ccccc21 | 27 | > 3 | > 100 |
| COc1ccc(Cn2c(CN3CCCC3)nc3ccccc32)cc1 | 18 | > 5 | > 100 |
| c1ccc(OCCn2c(CN3CCCC3)nc3ccccc32)cc1 | > 100 |  | > 100 |
| N#Cc1ccccc1Cn1c(CN2CCCC2)nc2ccccc21 | 4 | > 25 | > 100 |
| O=[N+]([O-])c1ccc(Cn2c(CN3CCCC3)nc3ccccc32)cc1 | 27 | > 3 | > 100 |
| O=[N+]([O-])c1cccc(Cn2c(CN3CCCC3)nc3ccccc32)c1 | 1.3 | > 76 | > 100 |
| c1ccc(CCn2c(CN3CCCC3)nc3ccccc32)cc1 | 2.7 | > 37 | > 100 |

Second part, the compound after the results:

| IC50 (Heme oxygenase 2) [µM] | Ratio IC50 (Rattus norvegicus) | IC50 (Heme oxygenase 1) [µM] | Compound |
| --- | --- | --- | --- |
| 3.4 | > 29 | > 100 | Clc1ccc(Cn2c(CN3CCCC3)nc3ccccc32)cc1 |
| 3.1 | > 32 | > 100 | c1ccc(Cn2c(CN3CCCC3)nc3ccccc32)cc1 |
| 2 | > 50 | > 100 | Fc1ccc(Cn2c(CN3CCCC3)nc3ccccc32)cc1 |
| 7.6 | > 13 | > 100 | Ic1ccc(Cn2c(CN3CCCC3)nc3ccccc32)cc1 |
| 4.8 | > 20 | > 100 | Clc1ccccc1Cn1c(CN2CCCC2)nc2ccccc21 |
| 5 | > 20 | > 100 | Cc1cccc(Cn2c(CN3CCCC3)nc3ccccc32)c1 |
| 14.7 | > 6 | > 100 | Clc1cccc(Cn2c(CN3CCCC3)nc3ccccc32)c1Cl |
| 1.5 | > 66 | > 100 | Brc1cccc(Cn2c(CN3CCCC3)nc3ccccc32)c1 |
| 4 | 24 | 96 | Clc1ccc(Cl)c(Cn2c(CN3CCCC3)nc3ccccc32)c1 |
| 17 | > 5 | > 100 | Clc1ccc(Cn2c(CN3CCCC3)nc3ccccc32)cc1Cl |
| 2.1 | > 47 | > 100 | Clc1cc(Cl)cc(Cn2c(CN3CCCC3)nc3ccccc32)c1 |
| 1.65 | > 60 | > 100 | Clc1cccc(Cn2c(CN3CCCC3)nc3ccccc32)c1 |
| 5 | > 20 | > 100 | Cc1ccc(Cn2c(CN3CCCC3)nc3ccccc32)cc1 |
| 6.1 | 10 | 62 | Clc1ccc(Cn2c(CN3CCCC3)nc3ccccc32)c(Cl)c1 |
| 55 | > 1.8 | > 100 | CC(C)c1ccc(Cn2c(CN3CCCC3)nc3ccccc32)cc1 |
| 9.2 | > 10 | > 100 | Clc1cccc(Cl)c1Cn1c(CN2CCCC2)nc2ccccc21 |
| 11 | > 9 | > 100 | N#Cc1ccc(Cn2c(CN3CCCC3)nc3ccccc32)cc1 |
| 15.8 | > 6 | > 100 | N#Cc1cccc(Cn2c(CN3CCCC3)nc3ccccc32)c1 |
| 2.6 | > 38 | > 100 | Brc1ccc(Cn2c(CN3CCCC3)nc3ccccc32)cc1 |
